Experimental data published in patent US7795305B2, “CDDO-compounds and combination therapies thereof” (Board of Regents, The University of Texas System, priority 2000, dated 2010).

How the values were obtained:
U937 and HL-60 cells = assay: Phi-Phi-Lux cleavage with caspase-3 inhibitor Z-DEVD-fmk pre-treatment; type: cell-based, human
Description: Detection of active caspases. The cell-permeable fluorogenic substrate Phi-Phi-Lux-G1D2 was administered to monitor caspase activity according to the manufacturer's recommendations (OncoImmunin, Inc, Kensington, Md.). Briefly, 10^6 cells were resuspended in 5 μL of substrate solution and incubated for 1 hour at 37° C. in the dark. After incubation, cells were washed, and the fluorescence emission was determined using the FL-1 channel of a Becton Dickinson FACScan flow cytometer.
CDDO-Me. […] Effects of CDDO-Me on the cleavage of caspase-3 were analyzed utilizing the fluorogenic substrate of caspase-3 Phi-Phi-Lux.

U937 S70E Bcl-2 cells = assay: Viability of Bcl-2 mutant transfectants; type: cell-based, human; conditions: 0.1 μM
Description: (§1) Cell lines. HL-60, KG-1, U937, and Jurkat cell lines were obtained from the American Type Culture Collection (Rockville, Md.). NB4 cells were kindly provided by Dr. M. Lanotte. HL-60-doxorubicin-resistant cells (HL-60-DOX) were also used. U937/Bcl-2 and its appropriate vector controls (U937/pCEP) were provided by Dr. S. Grant. U937 cells were transfected with WT, S70A, or S70E cDNA containing cytomegalovirus plasmids by electroporation (200 V, 975 μF capacitance) and selected and maintained in the medium plus 500 μg/mL G418 (Gibco BRL, Gaithersburg, Md.)
(§2) The effect of CDDO-Me on Bcl-2 phosphorylation was further investigated by performing metabolic labeling studies with ^32P-orthophosphoric acid. […] To further investigate mechanisms of inhibition of Bcl-2 phosphorylation that could may a role in CDDO-Me-induced cell death, the inventors selected U937 cells that were stably transfected with a serine 70→alanine, Bcl-2 mutant (S70A).

U937/S70A Bcl-2 cells = assay: Viability of Bcl-2 mutant transfectants; type: cell-based, human; conditions: 0.1 μM
Description: as §1, §2

U937 cells = assay: Cell cycle kinetics, proliferating (S+G2M) fraction by flow cytometry; type: cell-based, human
Description: Cell kinetic and DNA fragmentation studies. The cell cycle kinetics was determined by staining cells with acridine orange for cellular DNA and RNA content followed by flow cytometeric analysis as described. Samples were measured in a FACScan flow cytometer (Becton Dickinson, San Jose, Calif.) using the 488-nm line of a […] argon laser and filter settings for green (530 nm) (DNA) and red (585 nm) (RNA) fluorescence. Ten thousand events were stored in list mode for analysis. The percentage of cells in the “sub G1 peak” defined the proportion of apoptotic cells in the tested populations. […] Cell-cycle kinetics was analyzed using ModFit software (Verity Software House, Inc., Topsham, Me.).
CDDO. The effect of CDDO on the survival of HL-60 and U937 leukemia cell lines is depicted in FIG. 1. A time- and dose-dependent decrease of HL-60 cells: at 48 hours, 10^−8 M, at 72 and 96 hours, 10^−9 M of CDDO reduced cell numbers by 50%. Viability of U937 cells was inhibited at 107 to 1018 at 48 hours. DNA fragmentation was measured to confirm that the cell death induced by CDDO was due to apoptosis on a sub G1 cell population by DNA/RNA flow cytometry (FIG. 2). The percentage of proliferating cells were analyzed by FCM.

GAL4-PPARγ = assay: Gal4-PPARγ chimeric protein luciferase transactivation; type: cell-based
Description: To determine if bound CDDO transactivates PPARγ, a Gal4-PPARγ chimeric protein was used to drive the expression of luciferase linked to the DNA binding sequence of GAL4 (FIG. 11B) (Wang et al., 2000). […] All known pharmacological PPARγ ligands had anti-proliferative and differentiating effects only when used at higher (3 or 5 μM)concentrations.

435 breast cancer cells = assay: Breast cancer growth in nude mice; type: in vivo; conditions: 20 and 40 mg/kg i.v. twice a week
Description: CDDO was given at 20 and 40 mg/kg i.v. twice a week 10 days after nude mice were injected s.c. with 2×10^6 estrogen-receptor negative, PPARγ positive 435 breast cancer cells.

| Compound | cleavage of Phi-Phi-Lux (U937 and HL-60 cells; CDDO-Me without inhibitor) [%] | cleavage of Phi-Phi-Lux (U937 and HL-60 cells; pre-treatment with 25 μM Z-DEVD-fmk for 1 hour) [%] | viable cells (U937 S70E Bcl-2 cells) [%] | decrease in viability (U937/S70A Bcl-2 cells) [%] | proliferating (S+G2M) fraction (U937 cells; 10^−6 M) [%] | proliferating (S+G2M) fraction (U937 cells; 10^−7 M (DMSO-controls 23.3%)) [%] | transactivation of GAL4-PPARγ (GAL4-PPARγ) | growth of breast cancer cells in vivo (435 breast cancer cells) |
| --- | --- | --- | --- | --- | --- | --- | --- | --- |
| COC(=O)[C@]12CCC(C)(C)C[C@H]1[C@H]1C(=O)C=C3[C@@]4(C)C=C(C#N)C(=O)C(C)(C)[C@@H]4CC[C@@]3(C)[C@]1(C)CC2 [CDDO-Me] | 15.1 | 2.7 | 75 | 60 | – | – | – | – |
| CC1(C)CCC2(C(=O)O)CCC3(C)C(C(=O)C=C4C5(C)C=C(C#N)C(=O)C(C)(C)C5CCC43C)C2C1 (centres unmarked) [CDDO, 2-cyano-3,12-dioxoolen-1,9-dien-28-oic acid] | – | – | – | – | 5.6 | 14.9 | transactivates GAL4-PPARγ in a dose-dependent manner | inhibits the growth of breast cancer cells in vivo |
